Data reported in patent publication US10478430B2, “Compounds useful as inhibitors of ATR kinase and combination therapies thereof” (Vertex Pharmaceuticals Incorporated, priority 2012, dated 2019).
“Also recorded” adds a separate entry of the source.

Key:
Type in all cases: cell-based
[1] = test system: H23 non-small cell lung cancer and HFL1 normal lung cells; assay: MTS cell density assay, triple combination of VE-822, Rucaparib and ionizing radiation; conditions: H23 versus HFL1 cells, with 2 Gy IR, 96 h, MacSynergy II modified for triple combination
Description: (§1) In FIG. 6A, H23 non-small cell lung cancer (a) and HFL1 normal lung (b) cells were treated in triplicate with the indicated concentrations of VE-822 and Rucaparib together with 2 gray (Gy) of IR. Cell density was measured after 96h by 3-(4,5-dimethylthiazol-2-yl)-5-(3-carboxymethoxyphenyl)-2-(4-sulfophenyl)-2H-tetrazolium (MTS) assay, and synergy was analyzed at the 95% confidence interval with MacSynergy II software modified for triple combination studies (Nguyen et al, PLOS One 5:9332). In FIG. 6B, H23 non-small cell lung cancer (a) and HFL1 normal lung (b) cells were treated in triplicate with the indicated concentrations of VE-822 and Rucaparib together with 80nM cisplatin. Cell density was measured after 96h by 3-(4,5-dimethylthiazol-2-yl)-5-(3-carboxymethoxyphenyl)-2-(4-sulfophenyl)-2H-tetrazolium (MTS) assay, and synergy was analyzed at the 95% confidence interval with MacSynergy II software modified for triple combination studies (Nguyen et al, PLOS One 5:9332).
FIG. 6a. […] The synergy plots can be analyzed using methods described in Reaper et al, “Selective Killing of ATM- or p53-deficient cancer cells through inhibition of ATR”, Nat. […]

HFL1 normal lung cells = assay: MTS cell density assay, synergy of VE-822 with Rucaparib (MacSynergy II); conditions: VE-822 + Rucaparib, 96 h, 95% confidence interval
Description: (§2) H23 non-small cell lung cancer (a) and HFL1 normal lung (b) cells were treated in triplicate with the indicated concentrations of VE-822 and Rucaparib for 96h. Cell density was measured by 3-(4,5-dimethylthiazol-2-yl)-5-(3-carboxymethoxyphenyl)-2-(4-sulfophenyl)-2H-tetrazolium (MTS) assay, and synergy was analyzed at the 95% confidence interval with MacSynergy II software.
FIG. 5. H23 non-small cell lung cancer (a) and HFL1 normal lung (b) cells were treated in triplicate with the indicated concentrations of VE-822 and Rucaparib for 96 h, cell density was measured by 3-(4,5-dimethylthiazol-2-yl)-5-(3-carboxymethoxyphenyl)-2-(4-sulfophenyl)-2H-tetrazolium (MTS) assay and synergy was analyzed at the 95% confidence interval with MacSynergy II software. The synergy plots can be analyzed using methods described in Reaper et al, “Selective Killing of ATM- or p53-deficient cancer cells through inhibition of ATR”, Nat. Chem. Bio. 2011, Apr. 13; 9 (7):428-430.

[2] = test system: H23 non-small cell lung cancer and HFL1 normal lung cells; assay: MTS cell density assay, triple combination of VE-822, Rucaparib and cisplatin; conditions: H23 versus HFL1 cells, with 80 nM cisplatin, 96 h, MacSynergy II modified for triple combination
Description: as §1
FIG. 6b. […] The synergy plots can be analyzed using methods described in Reaper et al, “Selective Killing of ATM- or p53-deficient cancer cells through inhibition of ATR”, Nat. […]

[3] = test system: H23, U2OS, HCT116, MCF7, HT144, HT29 and PSN1 cancer cells; assay: MTS cell density assay, synergy of VE-822 with Rucaparib across a cancer cell line panel; conditions: seven cancer cell lines, VE-822 + Rucaparib, 96 h, in vitro
Description: (§3) H23 non-small cell lung cancer (a), U2OS osteosarcoma (b), HCT116 colorectal cancer (c), MCF7 breast cancer (d), HT144 melanoma (e), HT29 colorectal cancer (f), and PSN1 pancreatic cancer (g) cells were treated in triplicate with the indicated concentrations of VE-822 and Rucaparib for 96h. Cell density was measured by 3-(4,5-dimethylthiazol-2-yl)-5-(3-carboxymethoxyphenyl)-2-(4-sulfophenyl)-2H-tetrazolium (MTS) assay, and synergy was analyzed at the 95% confidence interval with MacSynergy II software. A range of synergy was observed from strong (a) to negligible (g).
(§4) FIG. 4. H23 non-small cell lung cancer (a), U2OS osteosarcoma (b), HCT116 colorectal cancer (c), MCF7 breast cancer (d), HT144 melanoma (e), HT29 colorectal cancer (f) and PSN1 pancreatic cancer (g) cells were treated in triplicate with the indicated concentrations of VE-822 and Rucaparib for 96 h, cell density was measured by 3-(4,5-dimethylthiazol-2-yl)-5-(3-carboxymethoxyphenyl)-2-(4-sulfophenyl)-2H-tetrazolium (MTS) assay and synergy was analyzed at the 95% confidence interval with MacSynergy II software. A range of synergy was observed from strong (a) to negligible (g). The synergy plots can be analyzed using methods described in Reaper et al, “Selective Killing of ATM- or p53-deficient cancer cells through inhibition of ATR”, Nat. Chem. Bio. 2011, Apr. 13; 9 (7):428-430.

[4] = test system: H23 non-small cell lung cancer cells; assay: MTS cell density assay, synergy of VE-822 with Rucaparib (MacSynergy II); conditions: VE-822 + Rucaparib, 96 h, 95% confidence interval
Description: as §3, §2
FIG. 4. […] The synergy plots can be analyzed using methods described in Reaper et al, “Selective Killing of ATM- or p53-deficient cancer cells through inhibition of ATR”, Nat. […]
FIG. 5. […] The synergy plots can be analyzed using methods described in Reaper et al, “Selective Killing of ATM- or p53-deficient cancer cells through inhibition of ATR”, Nat. […]

[5] = test system: PSN1 pancreatic cancer cells; assay: as above; conditions: VE-822 + Rucaparib, 96 h, 95% confidence interval
Description: as §3, §4

## CNCc1ccc(-c2cc(-c3nc(-c4ccc(S(=O)(=O)C(C)C)cc4)cnc3N)on2)cc1 [VE-822]
[1]
  synergy of the combination of VE-822, Rucaparib and ionizing radiation: cancer-selective synergistic effects
HFL1 normal lung cells
  synergy with the PARP inhibitor Rucaparib: not normal cells
[2]
  synergy of the combination of VE-822, Rucaparib and cisplatin: cancer-selective synergistic effects
[3]
  synergy with the PARP inhibitor Rucaparib across cancer cell lines: synergizes with the PARP inhibitor Rucaparib in many (but not all) cancer cell lines
[4]
  synergy with the PARP inhibitor Rucaparib: strong; also recorded: synergizes with the PARP inhibitor Rucaparib in cancer
[5]
  synergy with the PARP inhibitor Rucaparib: negligible
